Test results as given in US11116757B2 (priority 2015, dated 2021).
Where two headings read alike, the source gives them in different places.

Target: DCN1-UBC12 interaction (Homo sapiens (Human), UniProt Q96GG9)
Assay: biochemical
Assay type: binding
[1] = Table 7, commercial compounds, read-out: TR-FRET IC50
[2] = Table 6, commercial compounds, read-out: TR-FRET IC50
[3] = Table 4, commercial compounds, read-out: TR-FRET IC50

Sequence of DCN1-UBC12 interaction (Q96GG9 60-248 limits assumed): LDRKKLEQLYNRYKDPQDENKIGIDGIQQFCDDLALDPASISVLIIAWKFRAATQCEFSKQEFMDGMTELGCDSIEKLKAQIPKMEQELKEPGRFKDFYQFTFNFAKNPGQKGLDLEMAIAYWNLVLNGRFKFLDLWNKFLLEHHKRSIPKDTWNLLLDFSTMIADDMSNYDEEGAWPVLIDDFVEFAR

Compound	IC50 (read-out: TR-FRET IC50)	other results
CCCC(C)N1CCC(N(Cc2ccccc2)C(=O)Nc2ccccc2Sc2ccccc2)CC1 (centres unmarked) [A303]	> 89.9 µM	–
CCOc1ccccc1NC(=O)N(Cc1ccc(C)o1)C1CCN(Cc2ccccc2)CC1 [B92]	> 67.6 µM	–
1-(1-Acryloylpiperidin-4-yl)-1-Benzyl-3-(3-(Trifluoromethyl)Phenyl)Urea [A65]	0.446 µM	–
CCCC(C)N1CCC(N(CCCNC(=O)CCl)C(=O)Nc2cccc(C(F)(F)F)c2)CC1 (centres unmarked) [A245]	> 53.9 µM	–
CCCC(C)N1CCC(N(Cc2ccccc2)C(=O)Nc2ccc(C(F)(F)F)cc2[NH2+][O-])CC1 (centres unmarked) [A174]	13.2 µM	–
Cc1nn(C)c2c1C(c1ccc(C(C)(C)C)cc1)C(NC(=O)c1ccccc1)C(=O)N2 (centres unmarked) [F11]	–	IC50 [1]: > 67.6 µM
CC(=O)N1CCC(N(Cc2ccco2)C(=O)Nc2ccc(Br)cc2)CC1 [B73]	> 67.6 µM	–
COc1ccc(CN(C(=O)Nc2ccccc2C)C2CCN(C(C)=O)CC2)cc1 [B84]	> 67.6 µM	–
CCCC(C)N1CCC(N(Cc2ccc3c(c2)OCO3)C(=O)Nc2ccc(Cl)c(Cl)c2)CC1 (centres unmarked) [A9]	0.0788 µM	–
CCCN1CCC(N(Cc2ccco2)C(=O)Nc2cccc(C(F)(F)F)c2)CC1 [A77, 1-(Furan-2-Ylmethyl)-1-(1-Propylpiperidin-4-yl)-3-(3-(Trifluoromethyl)Phenyl)Urea]	0.798 µM	–
CC(C)C(C)N1CCC(N(Cc2ccccc2)C(=O)Nc2cc(F)cc(C(F)(F)F)c2)CC1 (centres unmarked) [A122]	1.12 µM	–
C=CC(=O)NCc1ccccc1CN(C(=O)Nc1cccc(C(F)(F)F)c1)C1CCN(C(C)CCC)CC1 (centres unmarked) [A239]	> 51.2 µM	–
CCN1CCC(NC(=O)Nc2cccc(C(F)(F)F)c2)CC1 [B15]	49.7 µM	–
CCN(CC)C(=O)c1cnn(-c2ncc(C)c(-c3cccs3)n2)c1C1CC1 [E26]	–	IC50 [2]: 65.2 µM
CCCC(C)N1CCC(N(Cc2ccccc2)C(=O)Nc2ccc3c(c2)OCO3)CC1 (centres unmarked) [A86]	0.991 µM	–
C=CS(=O)(=O)NCCN(C(=O)Nc1cccc(C(F)(F)F)c1)C1CCN(C(C)CCC)CC1 (centres unmarked) [A235]	> 41.1 µM	–
CCCC(C)N1CCC(N(Cc2ccccc2)C(=O)Nc2cc(OC)c(OC)c(OC)c2)CC1 (centres unmarked) [A246]	> 55.6 µM	–
CCCC(C)N1CCC(N(Cc2ccccc2)C(=O)Nc2ccc(O)cc2)CC1 (centres unmarked) [A308]	> 98.6 µM	–
CC(c1ccc(Cl)cc1)N1CCC(N(Cc2ccccc2)C(=O)Nc2cc(F)cc(C(F)(F)F)c2)CC1 (centres unmarked) [A216]	> 23.8 µM	–
COc1cc(C(=O)N2CCC(C(=O)Nc3ccc(Cl)cc3)CC2)cc(OC)c1OC [C23]	–	IC50 [3]: > 67.6 µM
C#CCCCN1CCC(N(Cc2ccccc2NC(=O)CC)C(=O)Nc2ccc(Cl)c(Cl)c2)CC1 [A199]	> 14.5 µM	–
CCCC(C)N1CCC(N(Cc2ccccc2)C(=O)Nc2cc(OC)cc(OC)c2)CC1 (centres unmarked) [A273]	> 68 µM	–
Cc1ccc(C(=O)N2CCC(C(=O)Nc3ccc(C)c(C)c3)CC2)cc1 [C25]	–	IC50 [3]: > 67.6 µM
CCOc1ccccc1NC(=O)C1CCN(C(=O)c2ccc(OC)cc2)CC1 [C47]	–	IC50 [3]: > 67.6 µM
CCN(CC)CCN(C)C(=O)c1cnn(-c2nccc(-c3cccs3)n2)c1C1CC1 [E34]	–	IC50 [2]: > 67.6 µM
COc1ccccc1CN1CCC(N(Cc2ccccc2)C(=O)Nc2cc(F)cc(C(F)(F)F)c2)CC1 [A224]	–	IC50 (TR-FRET IC50): > 25.3 µM

Compound	IC50 (read-out: TR-FRET IC50)	other results
CCOc1cc(C(=O)N2CCCC(c3nc4ccccc4s3)C2)cc(Br)c1OC (centres unmarked) [D28]	> 67.6 µM	–
CCCC(C)N1CCC(N(Cc2ccccc2)C(=O)Nc2ccc(C(=O)OC)cc2I)CC1 (centres unmarked) [A190]	37.8 µM	–
CCCC(C)N1CCC(N(Cc2ccccc2)C(=O)Nc2ccccc2C(N)=O)CC1 (centres unmarked) [A257]	> 61.8 µM	–
CC(=O)O[C@H]1CN(Cc2ccccc2)CC[C@@H]1NC(=O)Nc1cccc(C(F)(F)F)c1 [A160]	7.89 µM	–
1-Benzyl-1-(1-Isopentylpiperidin-4-yl)-3-(3-(Trifluoromethyl)Phenyl)Urea [A90]	1.13 µM	–
C=CC(=O)NCCN(C(=O)Nc1cccc(C(F)(F)F)c1)C1CCN(C(C)CCC)CC1 (centres unmarked) [drawing 835]	33.8 µM	–
COc1ccc(CN(C(=O)Nc2ccccc2F)C2CCN(C(C)=O)CC2)cc1 [B86]	> 67.6 µM	–
CC(=O)N1CCC(N(Cc2ccco2)C(=O)Nc2ccccc2C(F)(F)F)CC1 [B76]	> 67.6 µM	–
CCCC(C)N1CCC(N(Cc2ccccc2)C(=O)Nc2ccc(Oc3ccncc3)cc2)CC1 (centres unmarked) [A69]	0.567 µM	–
CCCC(C)N1CCC(N(Cc2ccccc2)C(=O)Nc2cccc(SC)c2)CC1 (centres unmarked) [A44]	0.254 µM	–
CCCC(C)N1CCC(N(Cc2ccccc2)C(=O)Nc2cccc(C)c2)CC1 (centres unmarked) [A82]	0.883 µM	–
Cn1cncc1CN1CCC(N(Cc2ccccc2)C(=O)Nc2cc(F)cc(C(F)(F)F)c2)CC1 [A221]	> 24.8 µM	–
CCCCN1CCC(N(Cc2ccccc2)C(=O)Nc2ccc(C)c(Cl)c2)CC1 [A28]	0.166 µM	–
1-(1-((1H-Imidazol-4-yl)Methyl)Piperidin-4-yl)-1-Benzyl-3-(3-(Trifluoromethyl)Phenyl)Urea [A184]	29 µM	–
CSc1cccc(NC(=O)C2CCN(C(=O)c3ccccc3C)CC2)c1 [C5]	–	IC50 [3]: 30.1 µM
CCCC(C)N1CCC(N(CCCNC(=O)CCl)C(=O)Nc2cccc(C(F)(F)F)c2)CC1 (centres unmarked) [drawing 836]	> 53 µM	–
O=C(Nc1ccc2c(c1)OCCO2)N(Cc1ccco1)C1CCN(Cc2ccccc2)CC1 [B115]	> 74.6 µM	–
Cc1cccc(C(=O)NC2C(=O)Nc3c(c(C)nn3-c3ccccc3)C2c2ccc(C#N)cc2)c1 (centres unmarked) [F5]	–	IC50 [1]: 35.1 µM
CC(C)N1CCN(C(=O)c2cnn(-c3nccc(-c4cccs4)n3)c2C2CC2)CC1 [E43]	–	IC50 [2]: > 67.6 µM
CCCC(C)N1CCC(N(Cc2ccccc2)C(=O)Nc2c(OC)cccc2OC)CC1 (centres unmarked) [A299]	> 85.7 µM	–
Cc1ccccc1/C=C/C(=O)N1CCC(C(=O)Nc2ccc3c(c2)OCO3)CC1 [C61]	–	IC50 [3]: > 67.6 µM
O=C(Nc1cc(F)cc(C(F)(F)F)c1)N(Cc1ccccc1)C1CCN(Cc2csc3ccccc23)CC1 [A212]	> 22.5 µM	–
CCCC(C)N1CCC(N(Cc2ccccc2CNC(=O)CCl)C(=O)Nc2cccc(C(F)(F)F)c2)CC1 (centres unmarked) [drawing 848]	0.154 µM	–
O=C(Nc1cc(F)cc(C(F)(F)F)c1)N(Cc1ccccc1)C1CCN(Cc2ccncc2)CC1 [A228]	> 28.3 µM	–
CCCC(C)N1CCC(N(Cc2ccccc2)C(=O)Nc2ccc(I)cc2)CC1 (centres unmarked) [A4]	0.035 µM	–
Cc1ccccc1C(=O)N1CCC(C(=O)Nc2c(F)cccc2F)CC1 [C36]	–	IC50 [3]: > 67.6 µM

Compound	IC50 (read-out: TR-FRET IC50)	other results
O=C(Nc1ccc2c(c1)C(=O)NCC2)NC1CCN(Cc2ccccc2)CC1 [B122]	> 84.8 µM	–
COc1cccc(NC(=O)C2CCN(C(=O)c3cnn(-c4ccccc4)c3-n3cccc3)CC2)c1 [C8]	–	IC50 [3]: > 67.6 µM
COc1ccc(C(=O)N2CCC(C(=O)Nc3cccc(F)c3)CC2)c2ccccc12 [C58]	–	IC50 [3]: > 67.6 µM
COc1cccc(NC(=O)NC2CCN(Cc3ccccc3)CC2)c1 [B61]	> 67.6 µM	–
CCCC(C)N1CCC(N(Cc2ccccc2)C(=O)Nc2ccc(Cl)cc2C#N)CC1 (centres unmarked) [A141]	4.22 µM	–
C=CS(=O)(=O)NCc1cccc(CN(C(=O)Nc2cccc(C(F)(F)F)c2)C2CCN(C(C)CCC)CC2)c1 (centres unmarked) [A1]	0.0043 µM	–
CCCC(C)N1CCC(N(Cc2ccccc2)C(=O)Nc2ccc(O)c(Cl)c2)CC1 (centres unmarked) [A300]	> 85.8 µM	–
O=C(NCCN1CCN(Cc2ccccc2C(F)(F)F)CC1)Nc1ccccc1 [B48]	> 67 µM	–
COc1ccc(CN(C(=O)Nc2ccc(C)cc2)C2CCN(C(C)=O)CC2)cc1 [B83]	> 67.6 µM	–
CN(C)c1ncncc1NC(=O)NC1CCN(Cc2ccc(F)cc2)CC1 [B109]	> 72.8 µM	–
CCCC(C)N1CCC(N(Cc2ccccc2NC(=O)CCl)C(=O)Nc2cccc(C(F)(F)F)c2)CC1 (centres unmarked) [drawing 843]	0.208 µM	–
C=CS(=O)(=O)NCCCN(C(=O)Nc1cccc(C(F)(F)F)c1)C1CCN(C(C)CCC)CC1 (centres unmarked) [drawing 838]	> 24 µM	–
COCCN1CCN(C(=O)c2cnn(-c3nccc(-c4cccs4)n3)c2C2CC2)CC1 [E13]	–	IC50 [2]: 28.8 µM
1-Benzyl-1-(1-(Cyclopropylmethyl)Piperidin-4-yl)-3-(3-(Trifluoromethyl)Phenyl)Urea [A30]	0.178 µM	–
Cc1c(C(=O)N2CCN(C)CC2)cnn1-c1nccc(-c2cccs2)n1 [E49]	–	IC50 [2]: > 67.6 µM
COc1cc(C(=O)N2CCC(c3nc4ccccc4s3)CC2)cc(OC)c1OC [D2]	8.53 µM	–
O=C(Nc1cc(F)cc(C(F)(F)F)c1)N(Cc1ccccc1)C1CCN(Cc2ccccc2OCc2ccccc2)CC1 [A214]	> 22.9 µM	–
1-(1-(2-Methylbenzyl)Piperidin-4-yl)-3-(3-(Trifluoromethyl)Phenyl)Urea [A137]	3.8 µM	–
FC(F)(F)c1ccnc(NC2CCN(Cc3ccccc3)CC2)n1 [B124]	> 90.4 µM	–
CCCC(C)N1CCC(N(Cc2ccccc2)C(=O)Nc2cc(S(F)(F)(F)(F)F)ccc2F)CC1 (centres unmarked) [A107]	2.05 µM	–
O=C(Nc1cccc(CN2CCOCC2)c1)NC1CCN(Cc2ccccc2)CC1 [A276, 1-(1-Benzylpiperidin-4-yl)-3-(3-(Morpholinomethyl)Phenyl)Urea]	> 68.7 µM	–
CCCC(C)N1CCC(N(Cc2ccccc2)C(=O)Nc2cccc(C)c2C)CC1 (centres unmarked) [A271]	> 67.5 µM	–
O=C(Nc1ccc(Cl)cc1)NC1CCN(Cc2ccccc2)CC1 [B58]	> 67.6 µM	–
COc1ccc(C(=O)N2CCC(NCc3ccc(C)cc3)CC2)cc1 [A194]	> 10.3 µM	–
CC(C1CCCC1)N1CCC(N(Cc2ccccc2)C(=O)Nc2cc(F)cc(C(F)(F)F)c2)CC1 (centres unmarked) [A279]	> 7.78 µM	–
